According to PubChem BioAssay AID248 (DTP/NCI, 2004):
Several values for one entry are separate records, joined by “and”; a condition that tells them apart may be missing. Identical values can stand only once. Toxic doses and inconclusive results are not listed. Cut-off read from the data, not from the text of the source: active = T/C of 150% or more; inactive = T/C below 125%.

Tested on: L1210 leukemia ip in BDF1 mice, survival T/C
Assay: NCI In Vivo Anticancer Drug Screen. Data for tumor model L1210 Leukemia (intraperitoneal) in B6D2F1 (BDF1) mice
Settings: endpoint: mean survival time, higher = longer survival
How it was run: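 Ratio derived from survival: compound-dosed mice over vehicle-dosed mice, all bearing a transplantable tumor.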

[1] = dose: 100.0 mg/kg/injection, schedule: Q01DX005 (ip), vehicle: Klucel (hydroxypropylcellulose) (HPC)
[2] = dose: 100.0 mg/kg/injection, schedule: Q01DX009 (ip), vehicle: Klucel (hydroxypropylcellulose) (HPC)
[3] = dose: 100.0 mg/kg/injection, schedule: Q04DX002 (ip), vehicle: Klucel (hydroxypropylcellulose) (HPC)
[4] = dose: 200.0 mg/kg/injection, schedule: Q04DX002 (ip), vehicle: Klucel (hydroxypropylcellulose) (HPC)
[5] = dose: 400.0 mg/kg/injection, schedule: Q04DX002 (ip), vehicle: Klucel (hydroxypropylcellulose) (HPC)
[6] = dose: 100.0 mg/kg/injection, schedule: Q04DX002 (ip), vehicle: saline with Tween-80
[7] = dose: 200.0 mg/kg/injection, schedule: Q04DX002 (ip), vehicle: saline with Tween-80
[8] = dose: 400.0 mg/kg/injection, schedule: Q04DX002 (ip), vehicle: saline with Tween-80
[9] = dose: 200.0 mg/kg/injection, schedule: Q01DX009 (ip), vehicle: Klucel (hydroxypropylcellulose) (HPC)
[10] = dose: 400.0 mg/kg/injection, schedule: Q01DX009 (ip), vehicle: Klucel (hydroxypropylcellulose) (HPC)

Measured: T/C

COC(=O)c1ccc(C(=O)CC(=O)c2ccccc2)cc1.COC(=O)c1ccc(C(=O)CC(=O)c2ccccc2)cc1.COC(=O)c1ccc(C(=O)CC(=O)c2ccccc2)cc1.COC(=O)c1ccc(C(=O)CC(=O)c2ccccc2)cc1.COC(=O)c1ccc(C(=O)CC(=O)c2ccccc2)cc1.[Th]
inactive: dose: 25.0 mg/kg/injection, schedule: Q01DX005 (ip), vehicle: Klucel (hydroxypropylcellulose) (HPC) 89 % of control | dose: 25.0 mg/kg/injection, schedule: Q01DX009 (ip), vehicle: Klucel (hydroxypropylcellulose) (HPC) 100 % of control | dose: 50.0 mg/kg/injection, schedule: Q01DX005 (ip), vehicle: Klucel (hydroxypropylcellulose) (HPC) 93 % of control | dose: 50.0 mg/kg/injection, schedule: Q01DX009 (ip), vehicle: Klucel (hydroxypropylcellulose) (HPC) 100 % of control | [1] 93 % of control and 89 % of control | [2] 93 % of control | [3] 96 % of control | [4] 100 % of control | [5] 93 % of control

C[C@]12CC[C@H]3[C@@H](CC=C4C[C@@H](O)CC[C@@]43C)[C@@H]1CC[C@@H]2N
inactive: dose: 100.0 mg/kg/injection, schedule: Q01DX001 (sc), vehicle: steriod suspending solution 98 % of control | [6] 105 % of control | dose: 200.0 mg/kg/injection, schedule: Q01DX001 (sc), vehicle: steriod suspending solution 101 % of control | [7] 112 % of control | dose: 400.0 mg/kg/injection, schedule: Q01DX001 (sc), vehicle: steriod suspending solution 101 % of control | [8] 118 % of control

CNC(=O)C1OC(n2cnc3c(N)ncnc32)C2OC(C)(C)OC12 (configuration not stated)
inactive: dose: 100.0 mg/kg/injection, schedule: Q01DX005 (ip), vehicle: saline 97 % of control | dose: 200.0 mg/kg/injection, schedule: Q01DX005 (ip), vehicle: saline 101 % of control

O=[N+]([O-])c1cc([N+](=O)[O-])c2sc3ccccc3c2c1
inactive: dose: 50.0 mg/kg/injection, schedule: Q04DX002 (ip), vehicle: saline with Tween-80 97 % of control | [6] 104 % of control and 90 % of control | [7] 87 % of control | [8] 108 % of control

O=c1oc(-c2cccc([N+](=O)[O-])c2)nc2ccccc12
inactive: dose: 50.0 mg/kg/injection, schedule: Q01DX009 (ip), vehicle: saline with Tween-80 97 % of control | dose: 100.0 mg/kg/injection, schedule: Q01DX009 (ip), vehicle: saline with Tween-80 94 % of control | dose: 200.0 mg/kg/injection, schedule: Q01DX009 (ip), vehicle: saline with Tween-80 93 % of control

CCCC(=O)N1CCCCC1C (configuration not stated)
inactive: [3] 112 % of control | [4] 89 % of control

Brc1cnn2c1NCC2
inactive: dose: 12.5 mg/kg/injection, schedule: Q01DX009 (ip), vehicle: water 100 % of control | dose: 12.5 mg/kg/injection, schedule: Q04DX003 (ip), vehicle: water 95 % of control | dose: 25.0 mg/kg/injection, schedule: Q01DX009 (ip), vehicle: water 101 % of control | dose: 25.0 mg/kg/injection, schedule: Q04DX003 (ip), vehicle: water 100 % of control | dose: 50.0 mg/kg/injection, schedule: Q01DX009 (ip), vehicle: water 97 % of control | dose: 50.0 mg/kg/injection, schedule: Q04DX003 (ip), vehicle: water 101 % of control | dose: 100.0 mg/kg/injection, schedule: Q01DX009 (ip), vehicle: water 97 % of control and 89 % of control | dose: 200.0 mg/kg/injection, schedule: Q01DX009 (ip), vehicle: water 93 % of control

NC(=O)c1ccccc1NC(=O)c1ccccc1Cl
inactive: [2] 102 % of control | [9] 100 % of control | [10] 93 % of control

O=c1cc(O)nc2ccccn12
inactive: [2] 99 % of control | dose: 100.0 mg/kg/injection, schedule: Q04DX003 (ip), vehicle: Klucel (hydroxypropylcellulose) (HPC) 95 % of control | [9] 97 % of control | dose: 200.0 mg/kg/injection, schedule: Q04DX003 (ip), vehicle: Klucel (hydroxypropylcellulose) (HPC) 96 % of control | [10] 92 % of control | dose: 400.0 mg/kg/injection, schedule: Q04DX003 (ip), vehicle: Klucel (hydroxypropylcellulose) (HPC) 91 % of control

COc1cc(C=Nc2ccc3c(c2)ncn3C)ccc1N(CCCl)CCCl
active: [3] 153 % of control

O=C(O)c1ccc([N+](=O)[O-])cc1F
inactive: dose: 100.0 mg/kg/injection, schedule: Q01DX001 (ip), vehicle: carboxymethylcellulose (CMC) 101 % of control | dose: 100.0 mg/kg/injection, schedule: Q01DX009 (ip), vehicle: carboxymethylcellulose (CMC) 96 % of control and 116 % of control | [3] 90 % of control | dose: 100.0 mg/kg/injection, schedule: Q04DX002 (ip), vehicle: carboxymethylcellulose (CMC) 102 % of control and 107 % of control | dose: 100.0 mg/kg/injection, schedule: Q04DX003 (ip), vehicle: carboxymethylcellulose (CMC) 97 % of control | dose: 200.0 mg/kg/injection, schedule: Q01DX001 (ip), vehicle: carboxymethylcellulose (CMC) 99 % of control | dose: 200.0 mg/kg/injection, schedule: Q01DX009 (ip), vehicle: carboxymethylcellulose (CMC) 107 % of control and 89 % of control | [4] 104 % of control | dose: 200.0 mg/kg/injection, schedule: Q04DX002 (ip), vehicle: carboxymethylcellulose (CMC) 99 % of control and 110 % of control | dose: 200.0 mg/kg/injection, schedule: Q04DX003 (ip), vehicle: carboxymethylcellulose (CMC) 100 % of control | dose: 400.0 mg/kg/injection, schedule: Q01DX009 (ip), vehicle: carboxymethylcellulose (CMC) 89 % of control | [5] 93 % of control | dose: 400.0 mg/kg/injection, schedule: Q04DX002 (ip), vehicle: carboxymethylcellulose (CMC) 100 % of control and 86 % of control

N#Cc1ccc(O)cc1
inactive: [1] 105 % of control | [2] 99 % of control | [3] 106 % of control | dose: 200.0 mg/kg/injection, schedule: Q01DX005 (ip), vehicle: Klucel (hydroxypropylcellulose) (HPC) 105 % of control | [9] 96 % of control | [4] 117 % of control | dose: 400.0 mg/kg/injection, schedule: Q01DX005 (ip), vehicle: Klucel (hydroxypropylcellulose) (HPC) 108 % of control | [5] 87 % of control

CC1(C)C2CCC(CN=C(N)CSS(=O)(=O)O)C1C2 (configuration not stated)
inactive: dose: 3.13 mg/kg/injection, schedule: Q04DX002 (ip), vehicle: saline with Tween-80 91 % of control | dose: 6.25 mg/kg/injection, schedule: Q04DX002 (ip), vehicle: saline with Tween-80 100 % of control and 107 % of control | dose: 12.5 mg/kg/injection, schedule: Q04DX002 (ip), vehicle: saline with Tween-80 104 % of control | dose: 25.0 mg/kg/injection, schedule: Q04DX002 (ip), vehicle: saline with Tween-80 93 % of control

Nc1nc(N)c2cc(CNc3ccc(C(=O)NC(CC(=O)O)C(=O)O)c(Cl)c3)ccc2n1 (configuration not stated)
active: dose: 1.8 mg/kg/injection, schedule: Q01DX009 (ip), vehicle: saline with Tween-80 152 % of control | dose: 1.8 mg/kg/injection, schedule: Q01DX009 (ip), vehicle: saline 157 % of control | dose: 2.7 mg/kg/injection, schedule: Q01DX009 (ip), vehicle: saline with Tween-80 178 % of control | dose: 2.7 mg/kg/injection, schedule: Q01DX009 (ip), vehicle: saline 162 % of control and 180 % of control
inactive: dose: 9.0 mg/kg/injection, schedule: Q01DX009 (ip), vehicle: saline 92 % of control | dose: 30.0 micrograms/kg/injection, schedule: Q01DX009 (ip), vehicle: saline with Tween-80 95 % of control | dose: 44.0 micrograms/kg/injection, schedule: Q01DX009 (ip), vehicle: saline with Tween-80 107 % of control | dose: 67.0 micrograms/kg/injection, schedule: Q01DX009 (ip), vehicle: saline with Tween-80 95 % of control | dose: 100.0 micrograms/kg/injection, schedule: Q01DX009 (ip), vehicle: saline with Tween-80 95 % of control

CCc1nc(N)nc(N)c1-c1ccc(N(CCCl)CCCl)cc1
inactive: dose: 13.0 mg/kg/injection, schedule: Q01DX Z (ip), vehicle: methylcellulose (MC) 108 % of control | dose: 20.0 mg/kg/injection, schedule: Q01DX Z (ip), vehicle: methylcellulose (MC) 103 % of control | dose: 30.0 mg/kg/injection, schedule: Q01DX Z (ip), vehicle: methylcellulose (MC) 108 % of control | dose: 45.0 mg/kg/injection, schedule: Q01DX Z (ip), vehicle: methylcellulose (MC) 113 % of control
